# In patent publication US20070166710A1, “Methods for inhibiting adipogenesis and for treating type 2 diabetes” (priority 2003, published 2007):
# Legend:
# Foxa-2 expression = assay: Foxa-2 gene expression in stromal vascular cells (preadipocytes) of lean and obese mice; format: cell-based; conditions: 100 nM insulin, 24 and 60 hours
# Protocol: Gene expression was analyzed in a vasculo-stromal fraction (containing preadipocytes) of wildtype and ob/ob mice that were cultured in the absence (−) or presence of 100 nM insulin for 24 and 60 hours.
# Stromal vascular cells from ob/ob mice are known to have increased cell replication in vitro and accumulate little triglycerides when cultured in differentiation medium containing insulin compared to lean control animals (Black et al (1995) J. Cell. Biochem 58:455-463). […] To test if the resistance to differentiation of obese preadipocytes may be mediated by Foxa-2, stromal vascular cells of lean and obese mice were isolated. cultured in the presence or absence of insulin, and gene expression of Foxa-2 and Pref-1 was measured. The mPNA levels were markedly higher in stromal vascular cells of ob/ob mice compared to lean littennates. […] However, Foxa-2 induction in ob/ob preadipocytes was profoundly higher compared to wildtype cells. Furthermore, Foxa-2 expression correlated with induction of Pref-1 gene expression.
# [1] = system: endogenous Foxa-2 activity in HepG2 cells; assay: Endogenous Foxa-2 activity in HepG2 cells transfected with reporter construct alone; format: cell-based
# Protocol: Transfections and Transactivation assay. HepG2 cells were grown to 60-70% confluence in a 24-well dish and transfected with 50 ng of each reporter gene (p6xCdx-TkLuc or pPEPCK-Luc), pCMV-β-Gal as internal reference and the expression vectors for wildtype or mutant Foxa-1 and Foxa-2 and human Akt1/Akt2 using the transfection reagent Fugene6 (Roche). Cells were grown for 48 hours and luciferase activity was measured using the Luciferase Detection System (Promega). Luciferase was normalized for transfection efficiency by β-galactosidase activity. […] To determine whether insulin decreases endogenous Foxa-2 activity in HepG2 cells, cells were transfected with the reporter construct alone and Foxa-2 activity was measured after stimulation with insulin and PI3-kinase or MAPKK1 inhibitors. […] This decrease in activity was ablated when cells were coincubated with Ly294002 but not with PD98059 (FIG. 10b).
# [2] = system: Pref-1, Hk-2, m2Pk, Glut-4 and Ucp-2/3; assay: Expression of putative Foxa-2 target genes in primary adipocytes cultured with insulin; format: cell-based, mice; conditions: 100 nM insulin for 60 hours vs untreated adipocytes
substance,measurement,setting,value
insulin: Insulin was from Sigma; hormone used as stimulus,expression of Foxa-2,Foxa-2 expression,markedly increased
same,decrease of Foxa-2 activity,[1]; 500 nM insulin,80%
same,"Foxa-2 activity, dose dependence",[1]; insulin stimulation,dose-dependent decrease
same,"expression of Pref-1, Hk-2, m2Pk, Glut-4 and Ucp-2/3",[2],upregulation
